Source: patent publication US20030113784A1, “Regulated expression of recombinant DNA” (priority 2001, published 2003)

Tested on: β-galactosidase expression in C2C12 myoblasts cotransfected with Op8iME and Lac-R
Assay: Time course of IPTG induction of β-galactosidase expression (chemiluminescent assay of cell lysates)
Format: cell-based
Settings: 5 mM IPTG added sixteen hours post-transfection
Description: The time course of IPTG induction of β-galactosidase expression in one of the muscle enhancer and SV40 intron containing constructs was determined. The kinetics of Op8iME induction in C2C12 myoblasts were plotted over the course of 48 hours. Op8iME and the Lac-R were transiently cotransfected into C2C12 myoblasts. Sixteen hours post-transfection, 5 mM IPTG was added. β-galactosidase expression was monitored in cell lysates by chemiluminescent assay (Promega) at a selection of time-points from 1 h to 48 h. IPTG-dependent induction of β-galactosidase began at 4h and increased over time, with a maximum peak at 24 h (FIG. 11).

CC(C)S[C@@H]1O[C@H](CO)[C@H](O)[C@H](O)[C@H]1O [IPTG, isopropylthiogalactoside]
time of maximum peak of IPTG-dependent induction of β-galactosidase: 24 h | start of IPTG-dependent induction of β-galactosidase (time-points 1 h to 48 h): 4 h
